In patent publication US9192653B2, “Protecting and repairing cartilage and musculoskeletal soft tissues” (University of Rochester, priority 2008, dated 2015):

B1: parathyroid hormone (protein, listed as Homo sapiens)
chain: MIPAKDMAKVMIVMLAICFLTKSDGKSVKKRSVSEIQLMHNLGKHLNSMERVEWLRKKLQDVHNFVALGAPLAPRDAGSQRPRKKEDNVLVESHEKSLGEADKADVNVLTKAKSQ
modifications: Parathyroid Hormone
notes: Parathyroid hormone, ligand of the PTH/PTHrP receptor (PTHR1)

What was measured:
[1] = test system: chick chondrocytes; test: Continuous 48 hr exposure of chick chondrocytes in culture; format: cell-based; settings: for smurf2 expression: 48 hr chronic, continuous exposure, chick chondrocytes
Description: FIG. 3C is a histogram showing levels of Smurf2 mRNA relative to control in chick sternal chondrocytes cultured with TGFβ, BMP-2, PTHrP, or dibutyryl cyclic adenosine monophosphate (dbcAMP) following a chronic, 48 hour exposure.
The Western blots show pSmad3 and pSmad2 levels in chick sternal chondrocytes cultured in the presence or absence of TGFβ, PTHrP and/or a Smurf2 RNAi (Sf2 RNAi) for 48 hours.
Without meaning to be limited by theory, this may have been due to down-regulation of TGF-β signaling by smurf2, allowing BMP signals to drive hypertrophy.

[2] = test system: articular cartilage in mice; test: Murine knee injury model (severe injury), daily injection, Alcian Blue histology; format: in vivo
Description: Mice were anesthetized and an arthrotomy of the knee was performed. The medial collateral ligament was surgically transected, and the anterior horn of the medial meniscus was surgically removed to create a mild knee injury. For the severe injury group, the anterior cruciate ligament was also transected, causing severe joint instability in combination with the mild meniscal and medial collateral ligament injuries. The knee was surgically closed and animals were allowed free movement subsequently. One group with the severe combined injuries, as the most difficult case for cartilage protection, was treated daily with injections of teriparatide. After sacrifice at appropriate time points, the knee joints were removed, decalcified, embedded in paraffin, and 4-micron thick sections were stained with Alcian Blue to produce photomicrographs as shown in FIG. 4.

[3] = test system: articular cartilage; test: Immediate treatment after meniscus/ligament injury (osteoarthritis model); format: in vivo, mice; settings: for proteoglycan in the articular cartilage (Alcian Blue staining intensity): daily injection for 4 weeks starting immediately after surgery; for cartilage loss (histomorphometric joint cartilage area): daily injection for 12 weeks starting immediately after surgery
Description: Treatment with teriparatide or PTH reduces the amount of cartilage loss as compared to treatment with saline. Mice exposed to sham surgery or meniscus/ligament injury, a model for osteoarthritis, were treated, starting immediately after surgery, with saline, teriparatide, or PTH for 4 weeks. […] Mice exposed to sham surgery or meniscus/ligament injury were treated, starting immediately after surgery, with saline, teriparatide, or PTH for 12 weeks.

[4] = test system: cartilage; test: Delayed treatment of osteoarthritic mice 8 weeks after joint surgery; format: in vivo; settings: daily injections for 4 weeks after 8 week delay post surgery
Description: Delayed treatment with teriparatide or PTH reduces the amount of cartilage loss as compared to treatment with saline. Mice were allowed to develop osteoarthritis for 8 weeks following joint surgery, as described above. After 8 weeks, the mice were treated for 4 weeks with daily injections of teriparatide or PTH, a delayed treatment regimen.

[5] = test system: white zone meniscal tears; test: Rabbit white zone meniscal tear, treatment after surgery; format: in vivo; settings: treated for 4 weeks after surgery, versus saline
Description: FIGS. 12A and 12B show daily treatment with teriparatide for 4 weeks following meniscal surgery results in preliminary meniscal healing. […] Rabbits underwent surgery to produce white zone meniscal tears. The rabbits were treated with either saline (FIG. 12A) or teriparatide (FIG. 12B) after surgery for 4 weeks.

[6] = test system: Rabbit meniscal cells; test: Cultured rabbit meniscal cells, mRNA expression; format: cell-based
Description: Rabbit meniscal cells were isolated from rabbit menisci and cultured. Cultured meniscal cells were treated with PTH for 1 or 3 days.

Molecule	smurf2 expression [1]	development of cartilage degeneration and osteoarthritis ([2]; severe injury (ACL and MCL transection plus medial menisectomy), 4, 8, 12 weeks)	cellular repair activities and hypertrophy or maturational changes ([2]; severe knee injury)	proteoglycan in the articular cartilage (Alcian Blue staining intensity) [3]	cartilage loss (histomorphometric joint cartilage area) [3]	cartilage loss and regeneration versus saline control [4]	meniscal healing (defect, cellularity, proteoglycan content) [5]	pSmad2 and pSmad3 levels (Western blot) ([1]; chick sternal chondrocytes, 48 hours, reversed by Smurf2 siRNA)	cyclin D1 mRNA ([6]; after 3 days of treatment)	type I collagen mRNA ([6]; treated for 1 or 3 days)
CCCC(=O)Nc1ncnc2c1ncn2[C@@H]1O[C@@H]2COP(=O)(O)O[C@H]2[C@H]1OC(=O)CCC [dbcAMP, dibutyryl cyclic adenosine monophosphate]	stimulated smurf2 expression									
CC[C@H](C)[C@H](NC(=O)[C@H](CCC(=O)O)NC(=O)[C@H](CO)NC(=O)[C@@H](NC(=O)[C@@H](N)CO)C(C)C)C(=O)N[C@@H](CCC(N)=O)C(=O)N[C@@H](CC(C)C)C(=O)N[C@@H](CCSC)C(=O)N[C@@H](Cc1cnc[nH]1)C(=O)N[C@@H](CC(N)=O)C(=O)N[C@@H](CC(C)C)C(=O)NCC(=O)N[C@@H](CCCCN)C(=O)N[C@@H](Cc1cnc[nH]1)C(=O)N[C@@H](CC(C)C)C(=O)N[C@@H](CC(N)=O)C(=O)N[C@@H](CO)C(=O)N[C@@H](CCSC)C(=O)N[C@@H](CCC(=O)O)C(=O)N[C@@H](CCCN=C(N)N)C(=O)N[C@H](C(=O)N[C@@H](CCC(=O)O)C(=O)N[C@@H](Cc1c[nH]c2ccccc12)C(=O)N[C@@H](CC(C)C)C(=O)N[C@@H](CCCN=C(N)N)C(=O)N[C@@H](CCCCN)C(=O)N[C@@H](CCCCN)C(=O)N[C@@H](CC(C)C)C(=O)N[C@@H](CCC(N)=O)C(=O)N[C@@H](CC(=O)O)C(=O)N[C@H](C(=O)N[C@@H](Cc1cnc[nH]1)C(=O)N[C@@H](CC(N)=O)C(=O)N[C@@H](Cc1ccccc1)C(=O)O)C(C)C)C(C)C [teriparatide]		dramatically retards the development of cartilage degeneration and osteoarthritis	stimulated cellular repair activities with suppression of hypertrophy or maturational changes	upregulation of proteoglycan	reduction in cartilage loss	reduction in the loss of cartilage and regeneration of lost cartilage	narrowing of the defect with increased cellularlity and proteoglycan content			
parathyroid hormone-related peptide [PTHrP]	stimulated smurf2 expression							reduction of pSmad2 and pSmad3		
B1				upregulation of proteoglycan	reduction in cartilage loss	reduction in the loss of cartilage and regeneration of lost cartilage			upregulation of mRNA for cyclin D1	upregulation of mRNA for type I collagen
